Among the data in patent US7173040B2, “Farnesyl transferase inhibiting 6-[(substituted phenyl)methyl]-quinoline and quinazoline derinazoline derivatives” (Janssen Pharmaceutica N.V., priority 2000, dated 2007) are melting point values, retold here.

`Cl.Cn1cncc1C(O)(c1ccc(C=O)cc1)c1ccc2[nH]c(=O)cc(-c3cccc(Cl)c3)c2c1` (racemic): the melting point (commonly the temperature, or range, at which the solid turns liquid) was > 260 °C.
The result for `Cl.Cn1cncc1C(O)(c1ccc(C(=O)O)cc1)c1ccc2[nH]c(=O)cc(-c3cccc(Cl)c3)c2c1.O` (racemic) (hydrate or solvate) reads > 300 °C.
Consider `Cn1cncc1C(O)(c1ccc([N+](=O)[O-])cc1)c1ccc2c(c1)c(-c1cccc(Cl)c1)cc(=O)n2C` (racemic) [Example B4, (±)-4-(3-chlorophenyl)-6-[hydroxy(1-methyl-1H-imidazol-5-yl)(4-nitrophenyl)methyl]-1-methyl-2(1H)-quinolinone], for which the melting point came to 230 °C.
In the case of `Cn1cncc1C(O)(c1ccc(C=O)cc1)c1ccc2c(c1)c(-c1cccc(Cl)c1)cc(=O)n2C` (racemic) [Example B6, (±)-4-[[4-(3-chlorophenyl)-1,2-dihydro-1-methyl-2-oxo-6-quinolinyl]hydroxy(1-methyl-1H-imidazol-5-yl)methyl]benzaldehyde] it was 208 °C; in that of `Cn1cncc1C(N)(c1ccc([N+](=O)[O-])cc1)c1ccc2c(c1)c(-c1cccc(Cl)c1)cc(=O)n2C` (racemic) [Example B8b, (±)-6-[amino(1-methyl-1H-imidazol-5-yl)(4-nitrophenyl)methyl]-4-(3-chlorophenyl)-1-methyl-2(1H)-quinolinone], 258 °C.
The result for `Cn1cncc1C(O)(c1ccc(CO)cc1)c1ccc2c(c1)c(-c1cccc(Cl)c1)cc(=O)n2C` (racemic) [Example B9, (±)-4-(3-chlorophenyl)-6-[hydroxy[4-(hydroxymethyl)phenyl](1-methyl-1H-imidazol-5-yl)methyl]-1-methyl-2(1H)-quinolinone] reads 273 °C; that for `Cn1cncc1C(O)(c1ccc(-c2ccc(Cl)cc2)cc1)c1ccc2c(c1)c(-c1cccc(Cl)c1)cc(=O)n2C` (racemic) [Example B10, (±)-6-[(4′-chloro[1,1′-biphenyl]-4-yl)hydroxy(1-methyl-1H-imidazol-5-yl)methyl]-4-(3-chlorophenyl)-1-methyl-2(1H)-quinolinone], 236 °C; that for `CC(O)c1ccc(C(O)(c2ccc3c(c2)c(-c2cccc(Cl)c2)cc(=O)n3C)c2cncn2C)cc1` (racemic) [Example B17, (±)-4-(3-chlorophenyl)-6-[hydroxy[4-(1-hydroxyethyl)phenyl](1-methyl-1H-imidazol-5-yl)methyl]-1-methyl-2(1H)-quinolinone], 181 °C.
Consider `Cn1cncc1C(O)(c1ccc(C(=O)O)cc1)c1ccc2c(c1)c(-c1cccc(Cl)c1)cc(=O)n2C` (racemic) [Example B19, (±)-4-[[4-(3-chlorophenyl)-1,2-dihydro-1-methyl-2-oxo-6-quinolinyl]hydroxy(1-methyl-1H-imidazol-5-yl)methyl]benzoic acid], for which the melting point is > 260 °C.
In the case of `Cn1cncc1C(O)(c1ccc(C#N)cc1)c1ccc2c(c1)c(-c1cccc(Cl)c1)cc(=O)n2C` (racemic) [Example B41b, (±)-4-[[4-(3-chlorophenyl)-1,2-dihydro-1-methyl-2-oxo-6-quinolinyl]hydroxy(1-methyl-1H-imidazol-5yl)methyl]benzonitrile] it was 210 °C; in that of `Cn1cnnc1C(c1ccc(Cl)cc1)c1ccc2c(c1)c(-c1cccc(Cl)c1)cc(=O)n2C` (stereo not shown) [Example B7, 4-(3-chlorophenyl)-6-[(4-chlorophenyl)(4-methyl-4H-1,2,4-triazol-3-yl)methyl]-1-methyl-2(1H)-quinolinone], 153 °C; in that of `Cn1cnnc1C(O)(c1ccc(Cl)cc1)c1ccc2c(c1)c(-c1cccc(Cl)c1)cc(=O)n2C` (stereo not shown) [Example B13, 4-(3-chlorophenyl)-6-[(4-chlorophenyl)hydroxy(4-methyl-4H-1,2,4-triazol-3-yl)methyl]-1-methyl-2(1H)-quinolinone], 182 °C.
In the case of `Cn1cnnc1C(c1ccc(Cl)cc1)c1ccc2c(c1)c(-c1cccc(Cl)c1)nc1nnnn12` (stereo not shown) [Example B20, 5-(3-chlorophenyl)-7-[(4-chlorophenyl)(4methyl-4H-1,2,4-triazol-3-yl)methyl]-tetrazolo[1,5-a]quinazoline], the melting point is 217 °C.
The result for `Cn1cnnc1C(N)(c1ccc(Cl)cc1)c1ccc2c(c1)c(-c1cccc(Cl)c1)cc(=O)n2C` (stereo not shown) [Example B22b, 6-[amino(4-chlorophenyl)(4-methyl-4H-1,2,4-triazol-3-yl)methyl]-4-(3-chlorophenyl)-1-methyl-2(1H)-quinolinone] reads 210 °C; that for `Cn1cnnc1C(c1ccc(I)cc1)c1ccc2c(c1)c(-c1cccc(Cl)c1)nc1nnnn12` (stereo not shown) [Example B26b, tetrazolo[1,5-a]quinazoline, 5-(3-chlorophenyl)-7-[(4-iodophenyl)(4methyl-4H-1,2,4-triazol-3-yl)methyl]-], 150 °C; that for `CSc1nnc(C(O)(c2ccc(Cl)cc2)c2ccc3c(c2)c(-c2cccc(Cl)c2)nc2nnnn23)n1C` (stereo not drawn) [Example B28b, 5-(3-chlorophenyl)-α-(4-chlorophenyl)-α-[4-methyl-5-(methylthio)-4H-1,2,4-triazol-3-yl]-tetrazolo[1,5-a]quinazoline-7-methanol], 65 °C.
Turning to `CSc1nnc(C(N)(c2ccc(Cl)cc2)c2ccc3c(c2)c(-c2cccc(Cl)c2)nc2nnnn23)n1C` (stereo not drawn) [Example B28d, 5-(3-chlorophenyl)-α-(4-chlorophenyl)-α-[4-methyl-5-(methylthio)-4H-1,2,4-triazol-3-yl]-tetrazolo[1,5-a]quinazoline-7-methanamine], the melting point turned out to be 150 °C.
The result for `Cn1cnnc1C(N)(c1ccc(Cl)cc1)c1ccc2c(c1)c(-c1cccc(Cl)c1)nc1nnnn12` (stereo not drawn) [Example B28e, 5-(3-chlorophenyl)-α-(4-chlorophenyl)-α-(4-methyl-4H-1,2,4-triazol-3-yl)-tetrazolo[1,5-a]quinazoline-7-methanamine] reads 220 °C; that for `Cn1cnnc1C(N)(c1ccc(I)cc1)c1ccc2c(c1)c(-c1cccc(Cl)c1)nc1nnnn12` (stereo not drawn) [Example B29c, 5-(3-chlorophenyl)-α-(4-iodophenyl)-α-(4-methyl-4H-1,2,4-triazol-3-yl)-tetrazolo[1,5-a]quinazoline-7-methanamine], 238 °C; that for `Cn1cnnc1C(N)(c1ccc(C#N)cc1)c1ccc2c(c1)c(-c1cccc(Cl)c1)nc1nnnn12` (stereo not shown) [Example B29d, 4-[amino[5-(3-chlorophenyl)tetrazolo[1,5-a]quinazolin-7-yl](4-methyl-4H-1,2,4-triazol-3-yl)methyl]-benzonitrile], 194 °C.
In the case of `Cn1cncc1C(O)(c1ccc2c(c1)OCCO2)c1ccc2[nH]c(=O)nc(-c3cccc(Cl)c3)c2c1` (stereo not shown) [Example B30, 4-(3-chlorophenyl)-6-[(2,3-dihydro-1,4-benzodioxin-6-yl)hydroxy(1-methyl-1H-imidazol-5-yl)methyl]-2(1H)-quinazolinone] it was > 260 °C; in that of `Cn1cnnc1C(CCl)(c1ccc(Cl)cc1)c1ccc2c(c1)c(-c1cccc(Cl)c1)cc(=O)n2C` (stereo not shown) [Example B31, 6-[2-chloro-1-(4-chlorophenyl)-1-(4-methyl-4H-1,2,4-triazol-3-yl)ethyl]-4-(3-chlorophenyl)-1-methyl-2(1H)-quinolinone], 260 °C.
The result for `Cn1cnnc1C(O)(c1ccc(Cl)cc1)c1ccc2[nH]c(=O)cc(-c3cccc(Cl)c3)c2c1` (stereo not shown) [Example B32, 4-(3-chlorophenyl)-6-[(4-chlorophenyl)hydroxy(4-methyl-4H-1,2,4-triazol-3-yl)methyl]-2(1H)-quinolinone] reads > 260 °C; that for `Cn1cnnc1C(O)(c1ccc(Cl)cc1)c1ccc2c(c1)c(-c1cccc(Cl)c1)cc(=O)n2Cc1ccc(C#N)cc1` (stereo not shown) [Example B33, 4-[[4-(3-chlorophenyl)-6-[(4-chlorophenyl)hydroxy(4-methyl-4H-1,2,4-triazol-3-yl)methyl]-2-oxo-1(2H)-quinolinyl]methyl]-benzonitrile], 185 °C.
The compound `Cn1cnnc1C(C)(c1ccc(Cl)cc1)c1ccc2c(c1)c(-c1cccc(Cl)c1)cc(=O)n2C.O=C(O)C(=O)O` (stereo not shown) [Example B34, 4-(3-chlorophenyl)-6-[1-(4-chlorophenyl)-1-(4-methyl-4H-1,2,4-triazol-3-yl)ethyl]-1-methyl-2(1H)-quinolinone ethanedioate (1:1)] gave a melting point of 130 °C.
In the case of `CCOC(=O)c1cn2c(cc(-c3cccc(Cl)c3)c3cc(C(c4ccc(Cl)cc4)c4nncn4C)ccc32)n1` (stereo not shown) [Example B35, ethyl 5-(3-chlorophenyl)-7-[(4-chlorophenyl)(4-methyl-4H-1,2,4-triazol-3-yl)methyl]-imidazo[1,2-a]quinoline-2-carboxylate] it was 220 °C.
As to `Cn1cncc1C(O)(c1ccc(C=O)cc1)c1ccc2c(c1)c(-c1cccc(Cl)c1)nc1nnnn12` (stereo not shown) [Example B38, 4-[[5-(3-chlorophenyl)tetrazolo[1,5-a]quinazolin-7-yl]hydroxy(1-methyl-1H-imidazol-5-yl)methyl]-benzaldehyde], the melting point was found to be 170 °C.
The result for `Cn1c(=O)cc(-c2cccc(Cl)c2)c2cc(C(O)(c3ccc(Cl)cc3)c3cnccc3Cl)ccc21` (stereo not shown) [Example B39, 4-(3-chlorophenyl)-6-[(4-chlorophenyl)(4-chloro-3-pyridinyl)hydroxymethyl]-1-methyl-2(1H)-quinolinone] reads 178 °C; that for `Cn1c(=O)cc(-c2cccc(Cl)c2)c2cc(C(N)(c3ccc(Cl)cc3)c3cnccc3Cl)ccc21` (stereo not shown) [Example B40b, 6-[amino(4-chlorophenyl)(4-chloro-3-pyridinyl)methyl]-4(3-chlorophenyl)-1-methyl-2(1H)-quinolinone], 180 °C.
Turning to `Cn1cncc1C(N)(c1ccc(C#N)cc1)c1ccc2c(c1)c(-c1cccc(Cl)c1)cc(=O)n2C` (stereo not shown) [Example B41d, 4-[amino[4-(3-chlorophenyl)-1,2-dihydro-1-methyl-2-oxo-6quinolinyl](1-methyl-1H-imidazol-5-yl)methyl]-benzonitrile], the melting point was 245 °C.
On to `Cn1cncc1C(N)(c1ccc(CN)cc1)c1ccc2c(c1)c(-c1cccc(Cl)c1)cc(=O)n2C` (stereo not shown) [Example B41e, 6-[amino[4-(aminomethyl)phenyl](1-methyl-1H-imidazol-5-yl)methyl]-4-(3-chlorophenyl)-1-methyl-2(1H)-quinolinone], for which the melting point was found to be 150 °C.
